Experimental data as given in paper PMC4232510, “Identification of Functionally Important Residues of the Rat P2X4 Receptor by Alanine Scanning Mutagenesis of the Dorsal Fin and Left Flipper Domains” (PLoS ONE, 2014).
Substitutions are numbered along the chain they refer to. Several values for one entry are separate records, joined by “and”; a condition that tells them apart may be missing. Equal entries are not always repeated.

Columns and labels:
[1] = target: T1, wild type (WT) rP2X4R (Rattus norvegicus, UniProt P51577); assay: whole-cell patch clamp, HEK293T cells expressing WT receptor; type: cell-based; conditions: for relative responsiveness: 100 µM agonist 2 s, relative to ATP (100%); for EC50: naïve receptors, 2–5 s application
T1 construct: expressed in transfected cells; host or cells: HEK293T
T1 sequence (P51577 1-388): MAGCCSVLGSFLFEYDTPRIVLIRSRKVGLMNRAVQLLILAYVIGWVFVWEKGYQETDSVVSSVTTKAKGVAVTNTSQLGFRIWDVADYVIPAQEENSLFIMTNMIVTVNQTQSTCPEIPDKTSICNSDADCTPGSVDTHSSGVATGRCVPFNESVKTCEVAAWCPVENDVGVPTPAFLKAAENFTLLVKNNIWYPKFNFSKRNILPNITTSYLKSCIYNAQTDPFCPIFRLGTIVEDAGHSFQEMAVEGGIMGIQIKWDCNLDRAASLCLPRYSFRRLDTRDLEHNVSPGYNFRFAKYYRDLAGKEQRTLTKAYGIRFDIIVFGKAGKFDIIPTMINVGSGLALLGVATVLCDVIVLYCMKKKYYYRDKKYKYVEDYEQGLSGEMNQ
Method: To express the recombinant channels, we used human embryonic kidney (HEK) 293T cells (American Type Culture Collection, Rockville, MD, USA) grown in Dulbecco modified Eagle’s medium (Thermo Fisher Scientific, Waltham, MA) supplemented with 10% fetal bovine serum (Sigma-Aldrich, St Louis, MO), 50 U/ml penicillin and 50 µg/ml streptomycin (both Thermo Fisher Scientific, Waltham, MA) in a humidified 5% CO2 and 95% air at 37°C. Cells were cultured in 75 cm^2 plastic culture flasks (NUNC, Rochester, NY) for 36–72 hours until reaching 80–95% confluence. Before the day of transfection, the cells were plated on 35 mm culture dishes (Sarstedt, Newton, NC) and incubated at 37°C for at least 24 h. Transfection was done using 2 µg of either WT or mutant receptor DNA with 2 µl of JetPrime reagent in 2 ml of Dulbecco modified Eagle’s medium, according to manufacturer’s instructions (PolyPlus-transfection, Illkirch, France). Transfected cells were identified by the fluorescence signal of EGFP using the Olympus IX71 inverted research microscope with fluorescence illuminators (Model IX71; Olympus, Melville, NY).
cDNAs encoding the sequences of the rP2X4 and mutated subunits were subcloned into the pIRES2-EGFP vector (Clontech, Mountain View, CA, USA). To generate the mutants, oligonucleotides (synthesized and provided by VBC-Genomics, Vienna, Austria or Sigma Aldrich) containing specific mutagenesis mismatches were introduced into the rP2X4/pIRES2-EGFP template using PfU Ultra DNA polymerase (Thermo Fisher Scientific). A High-Speed Plasmid Mini Kit (Geneaid, Taipei City, Taiwan) was used to isolate the plasmids for transfection. Dye terminator cycle sequencing (ABI PRISM 3100, Applied Biosystems, Foster City, CA) was used to identify and verify the presence of the mutations. The sequencing was performed by the DNA Sequencing Laboratory, Institute of Microbiology, ASCR, Prague.
ATP-induced currents were recorded from whole cells clamped to −60 mV using an Axopatch 200B patch-clamp amplifier (Axon Instruments, Union City, CA). The recordings were captured and stored using the Digidata 1322A and pClamp9 software package (Axon Instruments). During the experiments, the cell culture was perfused with a bath solution containing: 142 mM NaCl, 3 mM KCl, 2 mM CaCl2, 1 mM MgCl2, 10 mM 4-(2-Hydroxyethyl)piperazine-1-ethanesulfonic acid (HEPES) and 10 mM D-glucose, adjusted to pH 7.3 with 1 M NaOH. The patch electrodes were filled with a solution containing: 154 mM CsCl, 11 mM EGTA and 10 mM HEPES, adjusted to pH 7.2 with 1.6 M CsOH. The whole-cell configuration was used to abolish the influence of natively present metabotropic receptors for ATP and we used intracellular cesium to block any kind of possible background potassium conductance. Potency of ATP was measured based on the activation of naïve (not previously stimulated) receptors using a short (2–5 s) application of various concentrations of ATP. The results are expressed as molar concentration of ATP required to produce 50% of the maximal response (EC50). One or two responses were recorded from one cell, if not otherwise stated, and responses from different cells were pooled. The maximum current amplitude (Imax) was measured in response to application of supramaximal concentrations (100–1000 µM) of ATP. Responsiveness to P2XR agonists 2-MeS-ATP, ATPγS, BzATP, and α,β-meATP, all applied in 100 µM concentration, was expressed as percentage of response in comparison to 100 µM ATP treatment for selected mutants. In all mutants, the whole cell currents were also measured in the presence of 3 µM IVM, which was dissolved in dimethyl sulfoxide, stored in stock solutions at 10 mM, and diluted to required concentrations in bath solution in the day of experiment. The control and drug containing solutions were applied via a rapid (exchange time 30–40 ms) perfusion system (RSC-200, BIOLOGIC, Claix, France). All other chemicals are from Sigma-Aldrich. […]

[2] = target: T2, rP2X4R R282A mutant (Rattus norvegicus, UniProt P51577, R282A); assay: whole-cell patch clamp, HEK293T cells expressing mutant; type: cell-based; conditions: for relative responsiveness: 100 µM agonist 2 s, relative to ATP (100%)
T2 construct: expressed in transfected cells; host or cells: HEK293T
T2 sequence (P51577 1-388 R282A): T1 sequence (P51577 1-388) with R282A

[3] = 100 µM ATP 60 s, biexponential fit
[4] = contribution of τdes2, 100 µM ATP 60 s
[5] = decay after removal of 1 or 3 µM ATP, 3 µM IVM

In the case of “2′(3′-O-(4-Benzoylbenzoyl)adenosine 5′-triphosphate [BzATP]”, the relative responsiveness [1] is reported as 38% and 38.2±3.4%, the EC50 [1] is reported as 11.1 ± 2.9 µM and the relative responsiveness [2] is reported as 25.7±3.7%.
`CSc1nc(N)c2ncn([C@@H]3O[C@H](COP(=O)(O)OP(=O)(O)OP(=O)(O)O)[C@@H](O)[C@H]3O)c2n1` [2-MeS-ATP, 2-(Methylthio)adenosine 5′-triphosphate] was tested, and the relative responsiveness [1] was 67% and 67.3±4.6%, the EC50 [1] was 7.9 ± 1 µM and the relative responsiveness [2] was 55.1±12.9%.
For `Nc1ncnc2c1ncn2[C@@H]1O[C@H](COP(=O)(O)OP(=O)(O)OP(=O)(O)O)[C@@H](O)[C@H]1O` [ATP], the τdes1 [1, 3] was 1.3 ± 0.2 s, the τdes2 [1, 3] was 9.0 ± 0.7 s and the relative responsiveness [1] was 100%. The Imax ([1]; 100–1000 µM ATP) was 2.2 ± 0.2 nA, the “Imax+IVM” value ([1]; ATP after 3 µM IVM 4-6 min) was 3.4 ± 0.3 nA and the “A2 /(A1+A2)” value [1, 4] was 63 ± 3%. For the same molecule, the “τoff +IVM” value [1, 5] was 21 ± 1.0 s, the EC50 [1] was 2.3 ± 0.4 µM and the τdes ([1]; weighted, 100 µM ATP 60 s) was 6.0 ± 0.4 s. The “EC50 rightward shift compared to WT” value [2] was “approximately 10 fold”, the τdes1 [2, 3] was 4.0 ± 0.3 s and the τdes2 [2, 3] was 14.7 ± 2.0 s. For the same molecule, the Imax ([2]; 100–1000 µM ATP) was 0.7 ± 0.1 nA, the “Imax+IVM” value ([2]; ATP after 3 µM IVM 4-6 min) was 4.5 ± 0.5 nA and the “A2 /(A1+A2)” value [2, 4] was 64 ±14%. The “τoff +IVM” value [2, 5] was 7.0 ± 0.6 s, the EC50 ([2]; naïve receptors, 2–5 s application) was 23 ± 8 µM and the τdes ([2]; weighted, 100 µM ATP 60 s) was 14 ± 1.0 s.
For `Nc1ncnc2c1ncn2[C@@H]1O[C@H](CO[P@](=O)(O)O[P@](=O)(O)O[P@@](=O)(O)S)[C@@H](O)[C@H]1O` [ATPγS, Adenosine 5′-(γ-thio)triphosphate], the relative responsiveness [1] was 50% and 49.6±3.5%, the EC50 [1] was 8.4 ± 1.8 µM and the relative responsiveness [2] was 45.5±5.2%.
For `CC[C@H](C)[C@H]1O[C@]2(CC[C@@H]1C)C[C@@H]1C[C@@H](C/C=C(\C)[C@@H](O[C@H]3C[C@H](OC)[C@@H](O[C@H]4C[C@H](OC)[C@@H](O)[C@H](C)O4)[C@H](C)O3)[C@@H](C)/C=C/C=C3\CO[C@@H]4[C@H](O)C(C)=C[C@@H](C(=O)O1)[C@]34O)O2` [IVM, ivermectin], the “Fold incr. Imax” value ([1]; 3 µM IVM 4-6 min vs IVM-untreated) was 1.7 ± 0.2 fold.
`Nc1ncnc2c1ncn2C1OC(COP(=O)(O)CP(=O)(O)OP(=O)(O)O)C(O)C1O` (stereo not drawn) [α,β-meATP, α,β-methyleneadenosine 5′-triphosphate] was tested, and the relative responsiveness [1] was 32% and 31.8±3.3%, the EC50 [1] was 62 ± 18 µM and the relative responsiveness [2] was 27.3±7.9%.
